Experimental data published in patent US20240116873A1, “QUINOLINE MERCAPTOACETATE SULFONAMIDE DERIVATIVE, INTERMEDIATE, PHARMACEUTICAL DERIVATIVE OR FORMULATION, AND PREPARATION METHOD AND USE THEREFOR” (JIANGSU CHIATAI QINGJIANG PHARMACEUTICAL CO., LTD., priority 2022, published 2024).
Read-outs that look alike come from different tables or passages of the source.

Columns and labels:
[1] = target: hURAT1 (Homo sapiens (Human), UniProt Q96S37); test: In vitro inhibition of 14C-uric acid absorption in HEK-293T cells stably expressing hURAT1; assay type: cell-based
Procedure: It was to test the in vitro inhibitory activity (IC50) of the compound on hURAT1.
The culture medium included: a DMEM culture medium+10% of fetal calf serum+500 μg/ml G418+1% of P/S. • (2) When the cells grew to 80% full, the culture medium was removed, PBS was added to clean the cells once, and then pancreatin-EDTA was added for digestion. The culture medium was added when the cells were subjected to wall removal, and subjected to blowing and beating to make the cells fall off. The cells were centrifuged and collected. The culture medium was added, and subjected to blowing and beating to form cell suspension. • (3) The cell density was adjusted to be 7×10^5/ml, then the cells were inoculated into a 96-well cell culture plate with white wall and transparent bottom according to the amount of 100 μL/well, and cultured for 12-24 h.
3.3 Preparation of compounds • (1) The compound was prepared into a mother solution with a concentration of 20 mM by DMSO, the mother solution was diluted to reach a concentration of 1 mM by DMSO, and then the solution was added into 96 wells. • (2) Quality control compounds were additionally arranged on the 96-well plate, so as to obtain a 100 x compound plate. • (3) The solutions in corresponding wells of another 96-well plate were diluted 50 times by the Cl-free HBSS buffer solution, so as to obtain a 2 x compound plate (plate 2). • (4) A buffer solution containing 0.1 μCi/ml 14C-uric acid at a density of 30 μL/well and a 2 x diluted compound at a density of 30 μL/well into a new 96-well plate, so as to obtain a 1 x compound plate (plate 1) for later use.
3.4 Absorption of ^14C-uric acid in cells stably expressing hURAT1 • (1) An absorption test may be performed after cells in the 96-well plate were cultured and adhered to the wall. • (2) The cells were washed once by the preheated buffer solution at a density of 200 μL/well. • (3) The cells in each well were completely absorbed, and then the corresponding compounds and 0.1 μCi/ml 14C-uric acid solution were immediately added at a density of 50 μL/well. • (4) The plate added with the compounds was incubated in an incubator at 37° C. for 5 min. • (5) 150 μL of ice-cold buffer solution was immediately added into each well to stop absorption. Each well was washed for three times with the buffer solution.

[2] = tested on: rat model of hyperuricemia; test: Rat model of hyperuricemia induced by oteracil potassium and hypoxanthine; assay type: in vivo; conditions: P<0.05
Procedure: Oteracil potassium was combined with hypoxanthine to induce a rat model of hyperuricemia for effective dose exploration and dose-effect relationship research. Oteracil potassium feed was adopted for feeding to induce the rat model of hyperuricemia for time-effect relationship, pathological state-based functional mechanism confirmation, and PK-PD researches.
In the experiment, the rat model of hyperuricemia was prepared by intragastric administration of hypoxanthine and intraperitoneal injection of oteracil potassium. The single intragastric administration dose of the compound shown in Formula 1 was set to be 5 mg/kg, 10 mg/kg, 20 mg/kg, and 40 mg/kg. The single intragastric administration dose of Lesinurad in the positive control groups was set to be 10 mg/kg, 20 mg/kg, 40 mg/kg, and 80 mg/kg. […] Moreover, the compounds had no significant effect on the renal coefficient, further verifying the good safety of this product at the effective dose.

[3] = target: OAT4 (Homo sapiens (Human), UniProt Q9NSA0); test: Inhibitory effect on transporter OAT4
Procedure: (§1) The IC50 of compounds on URAT1, OAT1, OAT3, and OAT4 was tested, thereby providing research data for clinical application and further development of drugs.

[4] = target: OAT3 (Homo sapiens (Human), UniProt Q8TCC7); test: Inhibitory effect on transporter OAT3
Procedure: as §1

[5] = target: OAT1 (Homo sapiens (Human), UniProt Q4U2R8); test: Inhibitory effect on transporter OAT1
Procedure: as §1

[6] = curve-fit parameter, hURAT1 inhibition, superscript 1 = plate1, 2 = plate2

Sequence of hURAT1 (Q96S37 whole entry): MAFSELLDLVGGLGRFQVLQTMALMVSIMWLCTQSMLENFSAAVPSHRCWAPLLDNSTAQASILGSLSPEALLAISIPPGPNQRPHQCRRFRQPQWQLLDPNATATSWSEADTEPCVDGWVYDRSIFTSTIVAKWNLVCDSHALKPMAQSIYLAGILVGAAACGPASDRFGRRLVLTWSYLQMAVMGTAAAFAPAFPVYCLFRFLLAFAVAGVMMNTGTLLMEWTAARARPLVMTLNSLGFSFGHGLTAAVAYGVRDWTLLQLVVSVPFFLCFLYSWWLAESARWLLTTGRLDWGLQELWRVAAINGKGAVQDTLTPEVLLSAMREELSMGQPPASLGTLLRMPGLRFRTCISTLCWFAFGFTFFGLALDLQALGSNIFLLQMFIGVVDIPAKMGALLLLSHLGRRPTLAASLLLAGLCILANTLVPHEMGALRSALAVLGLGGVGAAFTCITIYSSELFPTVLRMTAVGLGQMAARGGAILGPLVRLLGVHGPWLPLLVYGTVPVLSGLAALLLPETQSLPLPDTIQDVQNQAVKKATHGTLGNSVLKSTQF
Sequence of OAT4 (Q9NSA0 whole entry): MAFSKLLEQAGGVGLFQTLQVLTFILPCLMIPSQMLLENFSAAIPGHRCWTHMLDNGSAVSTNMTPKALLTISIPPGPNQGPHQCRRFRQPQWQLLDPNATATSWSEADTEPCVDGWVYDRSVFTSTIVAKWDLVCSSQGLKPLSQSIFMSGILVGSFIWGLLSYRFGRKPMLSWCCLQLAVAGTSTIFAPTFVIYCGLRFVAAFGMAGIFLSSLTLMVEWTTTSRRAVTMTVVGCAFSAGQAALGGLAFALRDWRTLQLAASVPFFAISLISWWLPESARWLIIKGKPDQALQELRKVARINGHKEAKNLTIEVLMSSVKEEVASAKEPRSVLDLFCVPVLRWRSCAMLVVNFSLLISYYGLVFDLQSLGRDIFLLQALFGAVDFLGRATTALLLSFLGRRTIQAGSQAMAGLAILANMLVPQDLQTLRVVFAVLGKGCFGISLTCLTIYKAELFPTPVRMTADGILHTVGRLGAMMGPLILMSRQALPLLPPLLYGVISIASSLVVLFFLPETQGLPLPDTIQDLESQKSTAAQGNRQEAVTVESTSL
Sequence of OAT3 (Q8TCC7 whole entry): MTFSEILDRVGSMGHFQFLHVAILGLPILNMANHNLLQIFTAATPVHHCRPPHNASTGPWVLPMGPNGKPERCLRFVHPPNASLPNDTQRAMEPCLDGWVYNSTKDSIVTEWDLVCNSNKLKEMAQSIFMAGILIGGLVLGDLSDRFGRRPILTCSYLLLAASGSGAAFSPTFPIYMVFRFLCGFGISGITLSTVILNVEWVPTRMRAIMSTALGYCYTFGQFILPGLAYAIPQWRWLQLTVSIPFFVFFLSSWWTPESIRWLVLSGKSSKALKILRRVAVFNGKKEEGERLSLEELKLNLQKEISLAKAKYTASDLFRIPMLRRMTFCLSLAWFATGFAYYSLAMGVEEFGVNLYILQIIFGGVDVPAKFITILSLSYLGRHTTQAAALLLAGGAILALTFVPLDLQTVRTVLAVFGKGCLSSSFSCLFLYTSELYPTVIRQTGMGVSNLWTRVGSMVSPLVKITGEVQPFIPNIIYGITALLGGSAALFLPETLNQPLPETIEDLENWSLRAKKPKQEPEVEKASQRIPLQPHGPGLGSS
Sequence of OAT1 (Q4U2R8 whole entry): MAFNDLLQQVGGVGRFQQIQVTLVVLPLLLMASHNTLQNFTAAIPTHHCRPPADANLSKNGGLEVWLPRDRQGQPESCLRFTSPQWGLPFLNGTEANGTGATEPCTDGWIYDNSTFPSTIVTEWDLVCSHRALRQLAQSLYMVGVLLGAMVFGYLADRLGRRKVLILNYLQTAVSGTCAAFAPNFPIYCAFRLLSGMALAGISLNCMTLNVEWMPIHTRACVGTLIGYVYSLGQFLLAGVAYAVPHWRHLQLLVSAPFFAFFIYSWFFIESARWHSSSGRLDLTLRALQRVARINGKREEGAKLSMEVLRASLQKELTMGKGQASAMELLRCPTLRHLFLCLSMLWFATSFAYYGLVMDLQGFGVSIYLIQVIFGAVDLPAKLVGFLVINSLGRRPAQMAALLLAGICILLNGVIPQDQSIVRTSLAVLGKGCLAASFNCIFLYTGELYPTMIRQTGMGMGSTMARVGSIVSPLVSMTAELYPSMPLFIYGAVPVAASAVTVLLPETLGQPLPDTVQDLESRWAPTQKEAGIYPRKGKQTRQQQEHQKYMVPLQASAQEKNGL

Which BOTTOM [1, 6] does the source give for `CC(C)(Sc1ccncc1-c1ccc(C#N)c2ccccc12)C(=O)O` [Verinuard, Verinurad] here?
The BOTTOM was 0.00.

What about the HILLSLOPE [1, 6] of the same compound?
The HILLSLOPE was 0.75.

What about the TOP [1, 6] of the same compound?
The TOP was 96.94.

What about the IC50 ([1]; hURAT1, HEK-293T, 14C-uric acid, 5 min at 37° C., superscript 1 = plate1, 2 = plate2) of the same compound?
Its IC50 is 0.0545 µM.

Which “serum uric acid level” value ([2]; model rats, single intragastric dose 40 mg/kg, vs model control group) does the source give for `O=C(O)CSc1nnc(Br)n1-c1ccc(C2CC2)c2ccccc12` [Lesinurad] here?
Its value is “significantly reduce”.

What about the renal coefficient ([2]; rats, single intragastric dose 80 mg/kg) of the same compound?
Its renal coefficient is “increased significantly”.

With `CCCN(CCC)S(=O)(=O)c1ccc(C(=O)O)cc1` [Probenecid] as the compound, how does the “inhibitory effect on drug transporter OAT4 (in words)” value [3] read?
The value was “a certain inhibitory effect”.

Which BOTTOM [1] does the source give for `CCc1oc2ccccc2c1C(=O)c1cc(Br)c(O)c(Br)c1` [Benzbromarone] here?
The BOTTOM was 6.1.

What about the HILLSLOPE [1] of the same compound?
Its HILLSLOPE is 1.20.

What about the TOP [1] of the same compound?
The TOP was 99.1.

With `CC(C)(Sc1ccnc2ccc(C(F)(F)F)cc12)C(=O)NS(C)(=O)=O` [D] as the compound, how does the IC50 [4] read?
The IC50 was over 100 µM.

What about the IC50 [5] of the same compound?
The IC50 was 12.7 µM.
